# Laboratory results from patent US20250011299A1, “PYRIDAZINYL AMINO DERIVATIVES AS ALK5 INHIBITORS” (CHIESI FARMACEUTICI S.P.A., priority 2021, published 2025).
# Where “and” joins values, the source holds several entries; their conditions need not be identical. Equal values may be shown once.
# Target: T1, human ALK5 (Homo sapiens, UniProt P36897)
# T1 construct: human ALK5 (recombinant TGF β1 N-term GST-tagged, 80-end); GST (N); purchased
# T1 sequence (P36897 80-503 limits assumed): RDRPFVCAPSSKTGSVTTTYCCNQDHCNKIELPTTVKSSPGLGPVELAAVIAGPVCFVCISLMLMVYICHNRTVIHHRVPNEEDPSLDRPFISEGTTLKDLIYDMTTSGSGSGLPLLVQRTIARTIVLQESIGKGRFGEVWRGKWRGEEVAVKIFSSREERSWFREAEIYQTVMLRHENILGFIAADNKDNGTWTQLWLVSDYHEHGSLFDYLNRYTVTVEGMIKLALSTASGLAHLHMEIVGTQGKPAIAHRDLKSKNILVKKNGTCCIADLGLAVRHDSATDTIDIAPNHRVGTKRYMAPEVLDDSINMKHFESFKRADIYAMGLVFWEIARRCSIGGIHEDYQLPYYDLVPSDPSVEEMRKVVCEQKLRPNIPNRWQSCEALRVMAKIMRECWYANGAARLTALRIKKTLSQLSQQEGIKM
# Experiment: ADP-GLO Kinases assay of ALK5 enzymatic activity
# Format: biochemical
# Details: purified recombinant human ALK5, TGFβ1 peptide substrate, pIC50 converted to pKi by Cheng-Prusoff, high ATP protocol (15 μM) for very potent compounds, 25° C.
# Summary of the method: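 Purified ALK5 preincubated 15 min with compound, then reacted with substrate and ATP; ADP formed read by ADP-Glo luminescence after 120 min or 60 min reaction, all steps at 25° C. 11-point concentration-response; pIC50 converted to pKi via Cheng-Prusoff.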
row,Ki,Compound
1,0.126 to 0.316 nM,"CN1CCN(CCC(=O)Nc2cc(Nc3cc(-c4cc(Cl)ccc4F)nnc3S(C)(=O)=O)ccn2)CC1 [Example 18, N-(4-{[6-(5-chloro-2-fluorophenyl)-3-methanesulfonylpyridazin-4-yl]amino}pyridin-2-yl)-3-(4-methylpiperazin-1-yl)propanamide]"
2,≤ 0.1 nM,"CN(CCC(O)C(F)(F)F)c1nnc(-c2cc(Cl)ccc2F)cc1Nc1ccnc(NC(=O)CN2C[C@@H]3C[C@H]2CN3C)c1 (mixture of isomers) [Example 130, N-(4-{[6-(5-chloro-2-fluorophenyl)-3-[methyl(4,4,4-trifluoro-3-hydroxybutyl)amino]pyridazin-4-yl]amino}pyridin-2-yl)-2-[(1S,4S)-5-methyl-2,5-diazabicyclo[2.2.1]heptan-2-yl]acetamide]"
3,0.126 to 0.316 nM,"COc1nnc(-c2cc(Cl)ccc2F)cc1Nc1ccnc(N)c1 [Example 48, N4-[6-(5-chloro-2-fluorophenyl)-3-methoxypyridazin-4-yl]pyridine-2,4-diamine]"
4,0.398 to 3.16 nM,"CC(C)OC(=O)C1CCN1c1nnc(-c2cc(Cl)ccc2F)cc1Nc1ccnc(NC(=O)CCN2C[C@@H](C)N[C@@H](C)C2)c1 (mixture of isomers) [Example 184, propan-2-yl 1-[6-(5-chloro-2-fluorophenyl)-4-({2-[3-(3,5-dimethylpiperazin-1-yl)propanamido]pyridin-4-yl}amino)pyridazin-3-yl]azetidine-2-carboxylate]"
5,0.398 to 3.16 nM,"COc1ccc2c(Nc3cc(-c4cc(Cl)ccc4F)nnc3OCCN(C)C)ccnc2c1 [Example 39, N-[6-(5-chloro-2-fluorophenyl)-3-[2-(dimethylamino)ethoxy]pyridazin-4-yl]-7-methoxyquinolin-4-amine]"
6,≤ 0.1 nM,"CN1CCN(CCC(=O)Nc2cc(Nc3cc(-c4cc(Cl)ccc4F)nnc3OCCNS(C)(=O)=O)ccn2)CC1 [Example 9, N-(4-{[6-(5-chloro-2-fluorophenyl)-3-(2-methanesulfonamidoethoxy)pyridazin-4-yl]amino}pyridin-2-yl)-3-(4-methylpiperazin-1-yl)propanamide]"
7,0.398 to 3.16 nM,"CC(C)OC(=O)C1CCN1c1nnc(-c2cc(Cl)ccc2F)cc1Nc1ccnc(NC(=O)CCN2CCN(C)CC2)c1 (racemic) [Example 150, propan-2-yl 1-[6-(5-chloro-2-fluorophenyl)-4-({2-[3-(4-methylpiperazin-1-yl)propanamido]pyridin-4-yl}amino)pyridazin-3-yl]azetidine-2-carboxylate]"
8,≤ 0.1 nM,"CN1CCN(CCC(=O)Nc2cc(Nc3cc(-c4cc(Cl)ccc4F)nnc3OCC(F)(F)F)ccn2)CC1 [Example 50, N-(4-{[6-(5-chloro-2-fluorophenyl)-3-(2,2,2-trifluoroethoxy)pyridazin-4-yl]amino}pyridin-2-yl)-3-(4-methylpiperazin-1-yl)propanamide]"
9,≤ 0.1 nM,"CN1CCN(CCC(=O)Nc2cc(Nc3cc(-c4cc(Cl)ccc4F)nnc3N(C)CC3(C)CCOC3=O)ncn2)CC1 (single isomer, unassigned; enantiomer 1) [Example 138, Enantiomer 1 N-(6-{[6-(5-chloro-2-fluorophenyl)-3-{methyl[(3-methyl-2-oxooxolan-3-yl)methyl]amino}pyridazin-4-yl]amino}pyrimidin-4-yl)-3-(4-methylpiperazin-1-yl)propanamide]"
10,≤ 0.1 nM,"CN1CCN(CCC(=O)Nc2cc(Nc3cc(-c4cc(Cl)ccc4F)nnc3OC3CCOC3)ccn2)CC1 (single isomer, unassigned) [Example 75, N-(4-{[6-(5-chloro-2-fluorophenyl)-3-(oxolan-3-yloxy)pyridazin-4-yl]amino}pyridin-2-yl)-3-(4-methylpiperazin-1-yl)propanamide]"
11,≤ 0.1 nM,"C[C@@H]1CN([C@H]2C[C@@H](C(=O)Nc3cc(Nc4cc(-c5cc(Cl)ccc5F)nnc4N(C)CC4(C)CCOC4=O)ncn3)C2)C[C@H](C)N1 (single isomer, unassigned) [Example 186, N-(6-{[6-(5-chloro-2-fluorophenyl)-3-{methyl[(3-methyl-2-oxooxolan-3-yl)methyl]amino}pyridazin-4-yl]amino}pyrimidin-4-yl)-3-(3,5-dimethylpiperazin-1-yl)cyclobutane-1-carboxamide]"
12,0.126 to 0.316 nM,"C[C@@H]1CN(CC23CC(C(=O)Nc4cc(Nc5cc(-c6cc(Cl)ccc6F)nnc5SCCO)ccn4)(C2)C3)C[C@H](C)N1 [Example 191, N-(4-{[6-(5-chloro-2-fluorophenyl)-3-[(2-hydroxyethyl)sulfanyl]pyridazin-4-yl]amino}pyridin-2-yl)-3-[(3,5-dimethylpiperazin-1-yl)methyl]bicyclo[1.1.1]pentane-1-carboxamide]"
13,≤ 0.1 nM,"CN(CCC(O)C(F)(F)F)c1nnc(-c2cc(Cl)ccc2F)cc1Nc1ccnc(NC(=O)CN2C[C@@H]3C[C@H]2CN3C)c1 (single isomer, unassigned) [Example 131]"
14,≤ 0.1 nM,"CSc1nnc(-c2cc(Cl)ccc2F)cc1Nc1ccnc(NC(=O)CCN2CCN(CCN)CC2)c1 [Example 20, 3-[4-(2-aminoethyl)piperazin-1-yl]-N-(4-{[6-(5-chloro-2-fluorophenyl)-3-(methylsulfanyl)pyridazin-4-yl]amino}pyridin-2-yl)propanamide]"
15,0.126 to 0.316 nM,"CN1CCN(CCC(=O)Nc2cc(Nc3cc(-c4cc(Cl)ccc4F)nnc3OCC(F)F)ccn2)CC1 [Example 52, N-(4-{[6-(5-chloro-2-fluorophenyl)-3-(2,2-difluoroethoxy)pyridazin-4-yl]amino}pyridin-2-yl)-3-(4-methylpiperazin-1-yl)propanamide]"
16,≤ 0.1 nM,"CN1CCN(CCC(=O)Nc2cc(Nc3cc(-c4cc(Cl)ccc4F)nnc3OCCO)ccn2)CC1 [Example 1, N-(4-{[6-(5-chloro-2-fluorophenyl)-3-(2-hydroxyethoxy)pyridazin-4-yl]amino}pyridin-2-yl)-3-(4-methylpiperazin-1-yl)propanamide]"
17,≤ 0.1 nM,"CN1C[C@@H]2C[C@H]1CN2CC(=O)Nc1cc(Nc2cc(-c3cc(Cl)ccc3F)nnc2OCc2cccc(O)c2)ccn1 [Example 120, N-(4-{[6-(5-chloro-2-fluorophenyl)-3-[(3-hydroxyphenyl)methoxy]pyridazin-4-yl]amino}pyridin-2-yl)-2-[(1S,4S)-5-methyl-2,5-diazabicyclo[2.2.1]heptan-2-yl]acetamide]"
18,0.126 to 0.316 nM,"CN1CCN(CCC(=O)Nc2cc(Nc3cc(-c4cc(Cl)ccc4F)nnc3N(C)[C@H]3CCOC3)ccn2)CC1 (single isomer, unassigned) [Example 106, N-(4-{[6-(5-chloro-2-fluorophenyl)-3-[methyl(oxolan-3-yl)amino]pyridazin-4-yl]amino}pyridin-2-yl)-3-(4-methylpiperazin-1-yl)propanamide]"
19,0.398 to 3.16 nM,"Nc1cc(Nc2cc(-c3cc(Cl)ccc3F)nnc2OCCO)ccn1 [Example 43, 2-({4-[(2-aminopyridin-4-yl)amino]-6-(5-chloro-2-fluorophenyl)pyridazin-3-yl}oxy)ethan-1-ol]"
20,0.126 to 0.316 nM and 0.398 to 3.16 nM,"CN(C)CCOc1nnc(-c2cc(Cl)ccc2F)cc1Nc1ccnc(NC(=O)CCN2CCOCC2)c1 [Example 40, N-(4-{[6-(5-chloro-2-fluorophenyl)-3-[2-(dimethylamino)ethoxy]pyridazin-4-yl]amino}pyridin-2-yl)-3-(morpholin-4-yl)propanamide]"
